Assay results published in the supplement of paper PMC10307832.

Tests used:
Test in all cases: relative viability (nuclei count vs DMSO), 5 days (fraction); higher = more cells survive
[1] = compound: CC(C)N(CCCNC(=O)Nc1ccc(C(C)(C)C)cc1)C[C@H]1O[C@@H](n2ccc3c(N)ncnc32)[C@H](O)[C@@H]1O + COc1cccc2cc(-c3nc([C@H]4CC[C@H](C(=O)O)CC4)n4ncnc(N)c34)[nH]c12 [OSI-027] (partner 0.5 µM)
Summary of the method: (§1)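 Relative viability is defined as nuclei in treated wells over nuclei in vehicle wells. Duplicate plates were run and medians reported. Lung cancer cell lines in 1536-well plates were dosed by pin tool one day after seeding, with one drug or with a fixed anchor-drug dose plus five library-drug doses (not always all listed) in √10 steps, and nuclei were counted after 5 days.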

[2] = compound: CC(C)=CC[C@@H](O)C1=CC(=O)c2c(O)ccc(O)c2C1=O [Shikonin] + Nc1ncn([C@H]2C[C@H](O)[C@@H](CO)O2)c(=O)n1 [Decitabine] (partner 2 µM)
Summary of the method: as §1

[3] = compound: CC(C)=CC[C@@H](O)C1=CC(=O)c2c(O)ccc(O)c2C1=O [Shikonin] + COc1cccc2cc(-c3nc([C@H]4CC[C@H](C(=O)O)CC4)n4ncnc(N)c34)[nH]c12 [OSI-027] (partner 0.5 µM)
Summary of the method: as §1

[4] = compound: CC(C)=CC[C@@H](O)C1=CC(=O)c2c(O)ccc(O)c2C1=O [Shikonin] + C[C@@H](Oc1cc(-c2cnn(C3CCNCC3)c2)cnc1N)c1c(Cl)ccc(F)c1Cl [Crizotinib] (partner 1 µM)
Summary of the method: as §1

Cell Line: COR-L 105
- relative viability ([1]; first compound 0.08 µM): 0.682
- relative viability ([1]; first compound 0.253 µM): 0.581
- relative viability ([1]; first compound 0.8 µM): 0.664
- relative viability ([1]; first compound 2.53 µM): 0.427
- relative viability ([1]; first compound 8 µM): 0.648
- relative viability ([2]; first compound 0.01 µM): 0.64
- relative viability ([2]; first compound 0.1 µM): 0.703
- relative viability ([2]; first compound 0.3162 µM): 0.625
- relative viability ([2]; first compound 1 µM): 0.477
- relative viability ([3]; first compound 0.01 µM): 0.685
- relative viability ([3]; first compound 0.1 µM): 0.723
- relative viability ([3]; first compound 0.3162 µM): 0.613
- relative viability ([3]; first compound 1 µM): 0.611
- relative viability ([4]; first compound 0.01 µM): 1.06
- relative viability ([4]; first compound 0.1 µM): 0.721
- relative viability ([4]; first compound 0.3162 µM): 0.763
- relative viability ([4]; first compound 1 µM): 0.692

Cell Line: SW 1573
- relative viability ([1]; first compound 0.08 µM): 0.501
- relative viability ([1]; first compound 0.253 µM): 0.679
- relative viability ([1]; first compound 0.8 µM): 0.635
- relative viability ([1]; first compound 2.53 µM): 0.683
- relative viability ([1]; first compound 8 µM): 0.705
- relative viability ([2]; first compound 0.01 µM): 0.446
- relative viability ([2]; first compound 0.1 µM): 0.686
- relative viability ([2]; first compound 0.3162 µM): 0.261
- relative viability ([2]; first compound 1 µM): 0.135
- relative viability ([3]; first compound 0.01 µM): 0.564
- relative viability ([3]; first compound 0.1 µM): 0.518
- relative viability ([3]; first compound 0.3162 µM): 0.443
- relative viability ([3]; first compound 1 µM): 0.258
- relative viability ([4]; first compound 0.01 µM): 0.906
- relative viability ([4]; first compound 0.1 µM): 0.867
- relative viability ([4]; first compound 0.3162 µM): 0.889
- relative viability ([4]; first compound 1 µM): 0.741

Cell Line: LXF-289
- relative viability ([1]; first compound 0.08 µM): 0.791
- relative viability ([1]; first compound 0.253 µM): 0.797
- relative viability ([1]; first compound 0.8 µM): 0.852
- relative viability ([1]; first compound 2.53 µM): 0.828
- relative viability ([1]; first compound 8 µM): 0.742
- relative viability ([2]; first compound 0.01 µM): 0.356
- relative viability ([2]; first compound 0.1 µM): 0.342
- relative viability ([2]; first compound 0.3162 µM): 0.453
- relative viability ([2]; first compound 1 µM): 0.378
- relative viability ([3]; first compound 0.01 µM): 0.817
- relative viability ([3]; first compound 0.1 µM): 0.84
- relative viability ([3]; first compound 0.3162 µM): 0.825
- relative viability ([3]; first compound 1 µM): 0.892
- relative viability ([4]; first compound 0.01 µM): 0.856
- relative viability ([4]; first compound 0.1 µM): 0.825
- relative viability ([4]; first compound 0.3162 µM): 0.773
- relative viability ([4]; first compound 1 µM): 0.844

Cell Line: NCI-H2228
- relative viability ([1]; first compound 0.08 µM): 0.614
- relative viability ([1]; first compound 0.253 µM): 0.632
- relative viability ([1]; first compound 0.8 µM): 0.526
- relative viability ([1]; first compound 2.53 µM): 0.623
- relative viability ([1]; first compound 8 µM): 0.78
- relative viability ([3]; first compound 0.01 µM): 0.698
- relative viability ([3]; first compound 0.1 µM): 0.67
- relative viability ([3]; first compound 0.3162 µM): 0.615
- relative viability ([3]; first compound 1 µM): 0.639
- relative viability ([4]; first compound 0.01 µM): 0.448
- relative viability ([4]; first compound 0.1 µM): 0.532
- relative viability ([4]; first compound 0.3162 µM): 0.414
- relative viability ([4]; first compound 1 µM): 0.421

Cell Line: NCI-H2342
- relative viability ([1]; first compound 0.08 µM): 0.736
- relative viability ([1]; first compound 0.253 µM): 0.643
- relative viability ([1]; first compound 0.8 µM): 0.611
- relative viability ([1]; first compound 2.53 µM): 0.61
- relative viability ([1]; first compound 8 µM): 0.607
- relative viability ([2]; first compound 0.01 µM): 0.723
- relative viability ([2]; first compound 0.1 µM): 0.72
- relative viability ([2]; first compound 0.3162 µM): 0.74
- relative viability ([2]; first compound 1 µM): 0.748
- relative viability ([3]; first compound 0.01 µM): 0.597
- relative viability ([3]; first compound 0.1 µM): 0.589
- relative viability ([3]; first compound 0.3162 µM): 0.646
- relative viability ([3]; first compound 1 µM): 0.671

Cell Line: NCI-H1299
- relative viability ([4]; first compound 0.01 µM): 0.958
- relative viability ([4]; first compound 0.1 µM): 1.09
- relative viability ([4]; first compound 0.3162 µM): 0.965
- relative viability ([4]; first compound 1 µM): 0.922

Cell Line: SW 900
- relative viability ([1]; first compound 0.08 µM): 0.482
- relative viability ([1]; first compound 0.253 µM): 0.569
- relative viability ([1]; first compound 2.53 µM): 0.691
- relative viability ([1]; first compound 8 µM): 0.512
- relative viability ([2]; first compound 0.01 µM): 0.373
- relative viability ([2]; first compound 0.1 µM): 0.536
- relative viability ([2]; first compound 0.3162 µM): 0.395
- relative viability ([2]; first compound 1 µM): 0.396
- relative viability ([3]; first compound 0.01 µM): 0.575
- relative viability ([3]; first compound 0.1 µM): 0.616
- relative viability ([3]; first compound 0.3162 µM): 0.508
- relative viability ([3]; first compound 1 µM): 0.569

Cell Line: NCI-H1648
- relative viability ([1]; first compound 0.08 µM): 0.277
- relative viability ([1]; first compound 0.253 µM): 0.258
- relative viability ([1]; first compound 0.8 µM): 0.247
- relative viability ([1]; first compound 2.53 µM): 0.247
- relative viability ([1]; first compound 8 µM): 0.293
- relative viability ([2]; first compound 0.01 µM): 0.481
- relative viability ([2]; first compound 0.3162 µM): 0.526
- relative viability ([2]; first compound 1 µM): 0.532
- relative viability ([3]; first compound 0.01 µM): 0.253
- relative viability ([3]; first compound 0.1 µM): 0.285
- relative viability ([3]; first compound 0.3162 µM): 0.285
- relative viability ([3]; first compound 1 µM): 0.26

Cell Line: NCI-H522
- relative viability ([1]; first compound 0.08 µM): 0.58
- relative viability ([1]; first compound 0.253 µM): 0.895
- relative viability ([1]; first compound 0.8 µM): 0.848
- relative viability ([1]; first compound 2.53 µM): 0.643
- relative viability ([1]; first compound 8 µM): 0.809
- relative viability ([2]; first compound 0.01 µM): 0.62
- relative viability ([2]; first compound 0.1 µM): 0.763
- relative viability ([2]; first compound 0.3162 µM): 0.644
- relative viability ([2]; first compound 1 µM): 0.553
- relative viability ([3]; first compound 0.01 µM): 0.566
- relative viability ([3]; first compound 0.1 µM): 0.729
- relative viability ([3]; first compound 0.3162 µM): 0.72
- relative viability ([3]; first compound 1 µM): 0.809

Cell Line: NCI-H1395
- relative viability ([1]; first compound 0.08 µM): 0.67
- relative viability ([1]; first compound 0.253 µM): 0.631
- relative viability ([1]; first compound 0.8 µM): 0.57
- relative viability ([1]; first compound 2.53 µM): 0.62
- relative viability ([1]; first compound 8 µM): 0.719
- relative viability ([2]; first compound 0.01 µM): 0.719
- relative viability ([2]; first compound 0.1 µM): 0.796
- relative viability ([2]; first compound 0.3162 µM): 0.692
- relative viability ([2]; first compound 1 µM): 0.71
- relative viability ([3]; first compound 0.01 µM): 0.582
- relative viability ([3]; first compound 0.1 µM): 0.681
- relative viability ([3]; first compound 0.3162 µM): 0.661
- relative viability ([3]; first compound 1 µM): 0.732

Cell Line: A549
- relative viability ([2]; first compound 0.01 µM): 0.223
- relative viability ([2]; first compound 0.1 µM): 0.281
- relative viability ([2]; first compound 0.3162 µM): 0.239
- relative viability ([2]; first compound 1 µM): 0.193
- relative viability ([4]; first compound 0.01 µM): 0.748
- relative viability ([4]; first compound 0.1 µM): 0.932
- relative viability ([4]; first compound 0.3162 µM): 0.872
- relative viability ([4]; first compound 1 µM): 0.705

Cell Line: NCI-H1563
- relative viability ([1]; first compound 0.08 µM): 0.742
- relative viability ([1]; first compound 0.253 µM): 0.782
- relative viability ([1]; first compound 0.8 µM): 0.73
- relative viability ([1]; first compound 2.53 µM): 0.713
- relative viability ([1]; first compound 8 µM): 0.799
- relative viability ([3]; first compound 0.01 µM): 0.678
- relative viability ([3]; first compound 0.1 µM): 0.714
- relative viability ([3]; first compound 0.3162 µM): 0.798
- relative viability ([3]; first compound 1 µM): 0.769
- relative viability ([4]; first compound 0.01 µM): 0.891
- relative viability ([4]; first compound 0.1 µM): 0.845
- relative viability ([4]; first compound 0.3162 µM): 0.751
- relative viability ([4]; first compound 1 µM): 0.622
